Reference: ChEMBL document CHEMBL3638458, “Amine substituted methanesulfonamide derivatives as vanilloid receptor ligands” (2014)

What follows are compounds tested against Transient receptor potential cation channel subfamily V member 1 (Homo sapiens, UniProt Q8NER1) (assay: FLIPR Assay: The FLIPR protocol consists of 2 substance additions. First the compounds to be tested (10 μM) are pipetted onto the cells and the Ca2+ influx is compared with the control (capsaicin 10 μM). This provides the result in % activation based on the Ca2+ signal after the addition of 10 μM of capsaicin (CP). After 5 minutes incubation, 100 nM of capsaicin are applied and the Ca2+ influx is also determined. Desensitising agonists and antagonists lead to suppression of the Ca2+ influx. The % inhibition is calculated compared to the maximum achievable inhibition with 10 μM of capsazepine. Starting from the percentage displacement caused by different concentrations of the compounds to be tested of general formula I, IC50 inhibitory concentrations which cause a 50-percent displacement of capsaicin were calculated. K1 values for the test substances were obtained by conversion by means of the Cheng-Prusoff equation (Cheng, Prusoff; Biochem. Pharmacol. 22, 3099-3108, 1973).).
Transient receptor potential cation channel subfamily V member 1, sequence (Q8NER1 whole entry): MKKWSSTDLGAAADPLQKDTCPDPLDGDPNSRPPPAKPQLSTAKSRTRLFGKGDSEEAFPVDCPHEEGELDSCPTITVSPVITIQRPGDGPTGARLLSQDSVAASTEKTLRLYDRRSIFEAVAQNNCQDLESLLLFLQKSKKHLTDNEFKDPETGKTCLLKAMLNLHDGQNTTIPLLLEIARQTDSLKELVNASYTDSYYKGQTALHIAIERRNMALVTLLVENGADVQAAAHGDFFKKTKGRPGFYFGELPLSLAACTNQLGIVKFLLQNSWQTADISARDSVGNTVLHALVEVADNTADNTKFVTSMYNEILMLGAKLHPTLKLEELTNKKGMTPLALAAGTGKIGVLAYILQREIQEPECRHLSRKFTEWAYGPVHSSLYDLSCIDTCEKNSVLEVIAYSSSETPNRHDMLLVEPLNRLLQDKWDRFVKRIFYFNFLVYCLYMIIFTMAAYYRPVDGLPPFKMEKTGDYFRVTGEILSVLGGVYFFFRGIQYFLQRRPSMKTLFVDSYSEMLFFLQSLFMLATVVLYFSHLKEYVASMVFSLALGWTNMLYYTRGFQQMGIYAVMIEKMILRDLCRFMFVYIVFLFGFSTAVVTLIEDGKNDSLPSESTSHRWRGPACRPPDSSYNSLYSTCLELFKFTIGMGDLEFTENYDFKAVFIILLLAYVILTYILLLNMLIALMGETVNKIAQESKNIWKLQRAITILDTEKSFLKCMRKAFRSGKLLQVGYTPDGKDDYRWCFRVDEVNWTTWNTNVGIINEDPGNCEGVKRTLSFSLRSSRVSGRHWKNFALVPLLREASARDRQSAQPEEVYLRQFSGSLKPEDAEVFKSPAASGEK

Structure (SMILES) | Ki
CC1CCN(c2nc(C(F)(F)F)ccc2CNC(=O)C(C)c2cccc(CNS(C)(=O)=O)c2)CC1 (centres undefined) | 102 nM
CC(C(=O)NCc1ccc(C(F)(F)F)nc1N1CCCC1)c1ccc(CNS(C)(=O)=O)cc1 (centres undefined) | 20 nM
Cc1cc(C(C)C(=O)NCc2ccc(C(F)(F)F)nc2N2CCCC2)ccc1CNS(C)(=O)=O (centres undefined) | 50 nM
CCS(=O)(=O)NCc1ccc(C(C)C(=O)NCc2ccc(C(F)(F)F)nc2N2CCC(C)CC2)cc1F (centres undefined) | 4 nM
